Where only a bound is given, the exact number is not on record here.

VHR, sequence (P51452 whole entry, species assumed): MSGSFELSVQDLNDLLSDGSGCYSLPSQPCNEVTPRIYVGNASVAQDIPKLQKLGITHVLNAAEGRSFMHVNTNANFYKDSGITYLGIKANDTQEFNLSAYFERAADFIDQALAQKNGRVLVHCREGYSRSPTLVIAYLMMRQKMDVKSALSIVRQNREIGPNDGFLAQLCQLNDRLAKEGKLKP

For this assay, the target named is VHR (Homo sapiens, UniProt P51452). The assay is described as follows: VHR phosphatase inhibition, general phosphatase assay using para-nitrophenylphosphate. The class given is biochemical. To be noted: read-out: IC50 Target VHR. From the text:
Assays protocols for the other enzymes mentioned herein (MtPTPA, PP1, VHR, PTP1B) are disclosed in Schweizer R A S, Atanasov, G A, Frey B M, and Odermatt A, Mol. Cell. Endocrinol. 2003, 212, 41-49 and Barratte, B., Meijer L., Galaktionov K. & Beach D, Anticancer Res. 1992, 12, 873-880. For determination of the phosphatase activity, a general phosphatase assay using para-nitrophenylphosphate was applied.
Broadly, the IC50 is the point on the concentration scale where inhibition reaches its midpoint. For `CC1=C2CCC[C@H](O)[C@@]2(C)C/C(=C\c2ccc(Cl)cc2)C1=O` [Compound 7, (3E,4aS,5S)-3-(4-Chlorobenzyliden)-4,4a,5,6,7,8-hexahydro-5-hydroxy-1,4a-dimethylnaphthalen-2(3H)-one], the half-maximal inhibitory concentration (IC50) lay in the range of 10 to 50 µM. With `CC1=C2CCC[C@H](O)[C@@]2(C)C/C(=C\c2ccccc2)C1=O` [Compound 18, (3E,4aS,5S)-3-benzylidene-4,4a,5,6,7,8-hexahydro-5-hydroxy-1,4a-dimethylnaphthalen-2(3H)-one] the figure was 10 to 50 µM. With `CC1=C2CCC[C@H](O)[C@@]2(C)C/C(=C\c2cc(C)cs2)C1=O` [Compound 19, (3E,4aS,5S)-4,4a,5,6,7,8-Hexahydro-5-hydroxy-1,4a-dimethyl-3-[(4-methylthiophen-2-yl)methylen]naphthalen-2(3H)-one] the figure was less than 10 µM; with `CCCCCCCCc1ccc(/C=C2\C[C@@]3(C)C(=C(C)C2=O)CCC[C@@H]3O)c(C)c1` [Compound 20, (3E,4aS,5S)-3-(2-Methyl-4-octyl-benzyliden)-4,4a,5,6,7,8-hexahydro-5-hydroxy-1,4a-dimethyl-naphthalen-2(3H)-one], 10 to 50 µM; with `CC1=C2CCC[C@H](O)[C@@]2(C)C/C(=C\c2ccoc2)C1=O` [Compound 62], 10 to 50 µM. Next, `CCc1ccc(/C=C2\C[C@@]3(C)C(CCC[C@@H]3O)C(C)C2=O)c(C)c1` (stereo partly drawn) [Compound 89, (E,4aS,5S)-3-(4-Ethyl-2-methylbenzyliden)-octahydro-5-hydroxy-1,4a-dimethylnaphthalen-2(1H)-one]: 10 to 50 µM; `CC1=C2CCC[C@H](O)[C@@]2(C)C/C(=C\c2ccc(O)c(O)c2O)C1=O` [Compound 107, (3E,4aS,5S)-3-(2,3,4-Trihydroxybenzyliden)-4,4a,5,6,7,8-hexahydro-5-hydroxy-1,4a-dimethylnaphthalen-2(3H)-one]: 10 to 50 µM; `CC1=C2CCC[C@H](O)[C@@]2(C)C/C(=C\c2c[nH]c3ccccc23)C1=O` [Compound 115, (3E,4aS,5S)-3-[(1H-Indol-3-yl)methylen]-4,4a,5,6,7,8-hexahydro-5-hydroxy-1,4a-dimethylnaphthalen-2(3H)-one]: 10 to 50 µM. As for `CCCCCCC#Cc1ccc(/C=C2\C[C@@]3(Cc4ccccc4)C(=C(C)C2=O)CCC[C@@H]3O)cc1` [Compound 126, (3E,4aS,5S)-3-[4-(Oct-1-inyl)benzyliden]-4a-benzyl-4,4a,5,6,7,8-hexahydro-5-hydroxy-1-methylnaphthalen-2(3H)-one], the IC50 is 10 to 50 µM.

Take `C[C@]12C/C(=C\c3ccc(C#Cc4ccccc4)cc3)C(=O)C=C1CCC[C@@H]2O` [Compound 136, (3E,4aS,5S)-3-[4-(2-Phenylethinyl)benzyliden]-4,4a,5,6,7,8-hexahydro-5-hydroxy-4a-methylnaphthalen-2(3H)-one]: the IC50 was in the range of 10 to 50 µM.

Consider `COc1cc(CC2(C)C(NC3CCCCC3)CC[C@@]3(C)C2CCC[C@@H]3O)cc(OC)c1` (stereo partly drawn) [Compound 146, (1S,8aS)-5-(3,5-Dimethoxybenzyl)-6-(cyclohexylamino)-decahydro-5,8a-dimethylnaphthalen-1-ol], for which the IC50 was in the range of 10 to 50 µM. Take `CCOC(=O)CC1(C)C(=O)CC[C@@]2(C)C1CCC[C@@H]2O` (stereo partly drawn) [Compound 153, Ethyl-2-[(4aS,5S)-decahydro-5-hydroxy-1,4a-dimethyl-2-oxonaphthalen-1-yl]acetat]: the IC50 was in the range of 10 to 50 µM. Take `CC1C(=O)/C(=C/c2ccccc2OCc2ccccc2)C[C@@]2(C)C1CCC[C@@H]2O` (stereo partly drawn) [Compound 190, (E,4aS,5S)-3-[2-(Benzyloxy)-benzyliden]-octahydro-5-hydroxy-1,4a-dimethylnaphthalen-2(1H)-one]: the IC50 lay in the range of 10 to 50 µM. Turning to `C[C@H]1/C(=C\c2ccccc2)C(=O)C=C2CCC[C@H](O)[C@]21C` [Compound 203, (3E,4R,4aS,5S)-3-Benzyliden-4,4a,5,6,7,8-hexahydro-5-hydroxy-4,4a-dimethylnaphthalen-2(3H)-one], the half-inhibitory concentration (IC50) was 10 to 50 µM. With `CC1=C2CCC[C@H](O)[C@@]2(C)C/C(=C\c2c(C)c(C)c(C)c(C)c2C)C1=O` [Compound 215, (3E,4aS,5S)-3-(2,3,4,5,6-Pentamethylbenzyliden)-4,4a,5,6,7,8-hexahydro-5-hydroxy-1,4a-dimethylnaphthalen-2(3H)-one] the figure was 10 to 50 µM. With `C[C@]12C/C(=C\c3ccccc3OCc3ccccc3)C(=O)C=C1CCC[C@@H]2O` [Compound 223, (3E,4aS,5S)-3-[2-(Benzyloxy)benzyliden]-4,4a,5,6,7,8-hexahydro-5-hydroxy-4a-methylnaphthalen-2(3H)-one] the figure was 10 to 50 µM; with `CCCC(C)/C=C1\C[C@@]2(C)C(=CC1=O)CCC[C@@H]2O` (stereo partly drawn) [Compound 225, (3E,4aS,5S)-4,4a,5,6,7,8-Hexahydro-5-hydroxy-4a-methyl-3-(2-methylpentyliden)naphthalen-2(3H)-one], 10 to 50 µM. Next, `C=CC[C@@]12C(=CC(=O)/C(=C/C3=CC[C@@H](C(=C)C)CC3)[C@@H]1C)CCC[C@@H]2O` [Compound 241]: 10 to 50 µM; `C=CC[C@@]12C(=CC(=O)/C(=C/c3ccc(C)o3)[C@@H]1C)CCC[C@@H]2O` [Compound 242, (3E,4R,4aS,5S)-4a-Allyl-4,4a,5,6,7,8-hexahydro-5-hydroxy-4-methyl-3-[(5-methylfuran-2-yl)methylen]naphthalen-2(3H)-on]: 10 to 50 µM; `C[C@@H]1C(O)CC[C@]2(C)C(=O)/C(=C/c3ccco3)CCC12` (stereo partly drawn) [Compound 266, (E,5S,8aS)-2-[(Furan-2-yl)methylen]-octahydro-6-hydroxy-5,8a-dimethylnaphthalen-1(2H)-one]: 10 to 50 µM. As for `COc1cc(OC)c(OC)cc1/C=C1\CCC2[C@H](C)C(O)CC[C@]2(C)C1=O` (stereo partly drawn) [Compound 267, (E,5S,8aS)-2-(2,4,5-Trimethoxy-benzyliden)-octahydro-6-hydroxy-5,8a-dimethylnaphthalen-1(2H)-one], the IC50 lay in the range of 10 to 50 µM. Next, `C=C(C)[C@H]1CC=C(/C=C2\C[C@@]3(C)C(=CC2=O)CCC[C@@H]3O)CC1` [Compound 286, (3E,4aS,5S)-4,4a,5,6,7,8-Hexahydro-5-hydroxy-4a-methyl-3-{[(R)-4-(prop-1-en-2-yl)cyclohex-1-enyl]methylen}naphthalen-2(3H)-one]: 10 to 50 µM; `CC1(CCc2ccccc2)C(=O)/C(=C/c2ccc(I)cc2)CC2(C)C1CCCC21OCCO1` (stereo not shown) [Compound 402, (7′E)-7′-(4-iodo-benzylidene)-5′,8a′-dimethylhexahydro-5′-(2-phenylethyl)-2′H-spiro[1,3-dioxolane-2,1′-naphthalen]-6′(5′H)-one]: 10 to 50 µM. As to `CC1(Cc2ccccc2[N+](=O)[O-])C(=O)CC[C@@]2(C)C1CCC[C@@H]2O` (stereo partly drawn) [Compound 405, (4aS,5S)-5-Hydroxy-1,4a-dimethyl-1-(2-nitro-benzyl)-octahydro-naphthalen-2-one], the IC50 is 10 to 50 µM. On to `COc1cc(OC)c(/C=C2\C[C@]3(C)C(=O)CCCC3=C(C)C2=O)c(OC)c1` [Compound 408, (3E,4aS)-5,8a-Dimethyl-7-(2,4,6-trimethoxy-benzylidene)-3,4,8,8a-tetrahydro-2H,7H-naphthalen-1,6-dione], for which the IC50 is 10 to 50 µM.

The values above are taken from US20090062401A1, “DECALINE-DERIVED COMPOUNDS AS […] ACTIVE AGENTS” (UNIVERSITAT DORTMUND, priority 2004, published 2009).
